Experiments:
Conditions in all cases: treatment time: 24 h
U2OS-mOrange2-Peroxisome = assay: cell count relative to DMSO control (panel B, lysosome/peroxisome/lipid stain) (fraction of control); higher = more cells (less toxicity)
Description: (§1)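 U2OS-derived cells in 384-well plates were treated for 24 h with a 7-point 2-fold dilution series (top dose 20 µM for most compounds; final max DMSO 1%), then fixed, stained in four marker panels and imaged on a Cellomics ArrayScan. Cell count per treatment (three replicate plates merged) is given as a fraction of DMSO control. Panel A used parental U2OS, panel B U2OS-mOrange2-Peroxisome, panel C1 U2OS-LMNB1-TUBA1B-ACTB (DRAQ5 nuclei).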

U2OS-LMNB1-TUBA1B-ACTB = assay: cell count relative to DMSO control (panel C1, DRAQ5/ER stain) (fraction of control); higher = more cells (less toxicity)
Description: as §1

U2OS = assay: cell count relative to DMSO control (panel A, nuclei/RNA/PMG/mitochondria stain) (fraction of control); higher = more cells (less toxicity)
Description: as §1

C[C@H]1O[C@@H](O[C@H]2[C@@H](O)C[C@H](O[C@H]3[C@@H](O)C[C@H](O[C@H]4CC[C@@]5(C)[C@H](CC[C@@H]6[C@@H]5CC[C@]5(C)[C@@H](C7=CC(=O)OC7)CC[C@]65O)C4)O[C@@H]3C)O[C@@H]2C)C[C@H](O)[C@@H]1O [digitoxin]
cell count
Conditions | 0.07812 µM | 0.15625 µM | 0.3125 µM | 0.625 µM | 1.25 µM | 2.5 µM | 5 µM
U2OS | 1.07 | 1.02 | 1.04 | 1.11 | 1.13 | 1.09 | 1.11
U2OS-LMNB1-TUBA1B-ACTB | 0.905 | 1.04 | 1.03 | 1.05 | 1.02 | 1.11 | 1.12
U2OS-mOrange2-Peroxisome | 1.24 | 1.23 | 0.888 | 1.04 | 1.01 | 1.09 | 1.02

COc1cccc2c1C(=O)c1c(O)c3c(c(O)c1C2=O)C[C@@](O)(C(=O)CO)C[C@@H]3O[C@H]1C[C@H](N)[C@H](O)[C@H](C)O1 [doxorubicin]
cell count
Conditions | 0.07812 µM | 0.15625 µM | 0.3125 µM | 0.625 µM | 1.25 µM | 2.5 µM | 5 µM
U2OS | 0.933 | 1.03 | 0.932 | 0.836 | 0.84 | 0.754 | 0.34
U2OS-LMNB1-TUBA1B-ACTB | 1.08 | 1.17 | 1.12 | 1.23 | 0.925 | 0.807 | 0.624
U2OS-mOrange2-Peroxisome | 0.712 | 0.735 | 0.747 | 0.899 | 0.86 | 1.1 | 0.37

O=C(N/N=C/c1ccc(O)c(O)c1)c1cc2ccccc2cc1O [dynasore]
cell count
Conditions | 0.3125 µM | 0.625 µM | 1.25 µM | 2.5 µM | 5 µM | 10 µM | 20 µM
U2OS | 0.981 | 1.01 | 0.925 | 1.02 | 0.867 | 0.807 | 0.638
U2OS-LMNB1-TUBA1B-ACTB | 1.02 | 1.05 | 1.06 | 1.12 | 0.953 | 0.966 | 0.826
U2OS-mOrange2-Peroxisome | 0.779 | 0.85 | 0.742 | 1.03 | 0.645 | 0.497 | 0.501

CCCCCCCC(=O)N[C@H](CN1CCCC1)[C@H](O)c1ccc2c(c1)OCCO2 [eliglustat]
cell count
Conditions | 0.3125 µM | 0.625 µM | 1.25 µM | 2.5 µM | 5 µM | 10 µM | 20 µM
U2OS | 0.927 | 0.977 | 0.988 | 1.01 | 1.1 | 1.01 | 0.973
U2OS-LMNB1-TUBA1B-ACTB | 1.08 | 1.13 | 1.13 | 1.08 | 1.09 | 1.07 | 1.02
U2OS-mOrange2-Peroxisome | 1.25 | 0.795 | 0.804 | 0.767 | 0.889 | 0.945 | 1.12

CC[C@H]1CN2CCc3cc(OC)c(OC)cc3[C@@H]2C[C@@H]1C[C@H]1NCCc2cc(OC)c(OC)cc21 [emetine]
cell count
Conditions | 0.3125 µM | 0.625 µM | 1.25 µM | 2.5 µM | 5 µM | 10 µM | 20 µM
U2OS | 1.08 | 1.01 | 1.01 | 0.994 | 1.02 | 1.05 | 0.753
U2OS-LMNB1-TUBA1B-ACTB | 1.11 | 1.08 | 1 | 1.06 | 1.02 | 0.916 | 0.899
U2OS-mOrange2-Peroxisome | 1.04 | 1.29 | 1.13 | 1.04 | 1.06 | 1.15 | 1.08

CCOc1ccccc1-n1c(C(C)N2CCN(C(=O)COc3ccc(Cl)cc3)CC2)nc2ccccc2c1=O (stereo unspecified) [erastin]
cell count
Conditions | 0.3125 µM | 0.625 µM | 1.25 µM | 2.5 µM | 5 µM | 10 µM | 20 µM
U2OS | 1.04 | 1.07 | 1.03 | 1.02 | 1.09 | 0.978 | 0.982
U2OS-LMNB1-TUBA1B-ACTB | 1.11 | 1.14 | 1.06 | 1 | 1.11 | 1.03 | 0.905
U2OS-mOrange2-Peroxisome | 0.603 | 0.516 | 0.65 | 0.612 | 0.749 | 0.77 | 0.579

O=c1[nH]c(=O)n([C@H]2C[C@H](O)[C@@H](CO)O2)cc1F [floxuridine]
cell count
Conditions | 0.3125 µM | 0.625 µM | 1.25 µM | 2.5 µM | 5 µM | 10 µM | 20 µM
U2OS | 0.806 | 0.815 | 0.744 | 0.681 | 0.609 | 0.58 | 0.558
U2OS-LMNB1-TUBA1B-ACTB | 1.06 | 1 | 0.979 | 0.737 | 0.792 | 0.929 | 0.892
U2OS-mOrange2-Peroxisome | 1.52 | 1.54 | 1.34 | 1.14 | 1.11 | 0.829 | 1.31

CC(C)n1c(/C=C/C(O)CC(O)CC(=O)O)c(-c2ccc(F)cc2)c2ccccc21 (stereo unspecified) [fluvastatin]
cell count
Conditions | 0.3125 µM | 0.625 µM | 1.25 µM | 2.5 µM | 5 µM | 10 µM | 20 µM
U2OS | 0.901 | 0.848 | 0.867 | 0.777 | 0.826 | 0.702 | 0.441
U2OS-LMNB1-TUBA1B-ACTB | 1.01 | 0.939 | 0.943 | 0.931 | 0.899 | 0.892 | 0.849
U2OS-mOrange2-Peroxisome | 0.991 | 0.839 | 0.835 | 0.93 | 0.815 | 0.872 | 0.22

Nc1ccn([C@@H]2O[C@H](CO)[C@@H](O)C2(F)F)c(=O)n1 [gemcitabine]
cell count
Conditions | 0.3125 µM | 0.625 µM | 1.25 µM | 2.5 µM | 5 µM | 10 µM | 20 µM
U2OS | 1.03 | 0.658 | 0.435 | 0.374 | 0.396 | 0.379 | 0.412
U2OS-LMNB1-TUBA1B-ACTB | 1.03 | 0.582 | 0.411 | 0.391 | 0.383 | 0.396 | 0.388
U2OS-mOrange2-Peroxisome | 0.811 | 0.529 | 0.498 | 0.576 | 0.543 | 0.595 | 0.496

Fc1cc(F)c2c(c1)[C@H]1C=CC[C@H]1C(c1cccnc1)N2 (stereo partly specified) [golgicide-A]
cell count
Conditions | 0.3125 µM | 0.625 µM | 1.25 µM | 2.5 µM | 5 µM | 10 µM | 20 µM
U2OS | 0.981 | 1 | 0.929 | 1.06 | 1.03 | 0.826 | 0.566
U2OS-LMNB1-TUBA1B-ACTB | 0.952 | 1.05 | 0.982 | 1.1 | 1.14 | 1.05 | 0.778
U2OS-mOrange2-Peroxisome | 0.814 | 0.73 | 0.804 | 0.719 | 0.89 | 0.916 | 0.833

O=C(CCCN1CCC(O)(c2ccc(Cl)cc2)CC1)c1ccc(F)cc1 [haloperidol]
cell count
Conditions | 0.3125 µM | 0.625 µM | 1.25 µM | 2.5 µM | 5 µM | 10 µM | 20 µM
U2OS | 1.02 | 0.985 | 0.893 | 0.939 | 0.979 | 1 | 0.956
U2OS-LMNB1-TUBA1B-ACTB | 1.03 | 1.05 | 1.03 | 0.979 | 1.05 | 1.11 | 1.05
U2OS-mOrange2-Peroxisome | 1.19 | 1.13 | 1.11 | 0.88 | 1.29 | 1.16 | 1.32

CCc1c2c(nc3ccc(OC(=O)N4CCC(N5CCCCC5)CC4)cc13)-c1cc3c(c(=O)n1C2)COC(=O)[C@]3(O)CC [irinotecan]
cell count
Conditions | 0.3125 µM | 0.625 µM | 1.25 µM | 2.5 µM | 5 µM | 10 µM | 20 µM
U2OS | 0.95 | 0.795 | 0.732 | 0.665 | 0.64 | 0.592 | 0.612
U2OS-LMNB1-TUBA1B-ACTB | 0.966 | 0.998 | 0.849 | 0.82 | 0.79 | 0.694 | 0.66
U2OS-mOrange2-Peroxisome | 0.759 | 0.66 | 0.641 | 0.621 | 0.666 | 0.771 | 0.742

C/C1=C/C(=O)O[C@@H]2C[C@@H](CC[C@H](C)/C=C\C=C\CC1)O[C@@](O)([C@@H]1CSC(=O)N1)C2 [latrunculin-a]
cell count
Conditions | 0.000781 µM | 0.0015625 µM | 0.003125 µM | 0.00625 µM | 0.0125 µM | 0.025 µM | 0.05 µM
U2OS | 0.372 | 0.438 | 0.369 | 0.312 | 0.278 | 0.194 | 0.121
U2OS-LMNB1-TUBA1B-ACTB | 0.337 | 0.521 | 0.464 | 0.461 | 0.379 | 0.304 | 0.196
U2OS-mOrange2-Peroxisome | 0.66 | 0.625 | 0.479 | 0.467 | 0.312 | 0.155 | 0.0636

CC(=O)N[C@@H](CC(C)C)C(=O)N[C@@H](CC(C)C)C(=O)N[C@H](C=O)CCCN=C(N)N [leupeptin]
cell count
Conditions | 0.3125 µM | 0.625 µM | 1.25 µM | 2.5 µM | 5 µM | 10 µM | 20 µM
U2OS | 1.07 | 1.09 | 0.933 | 1.09 | 1.04 | 1.03 | 1.01
U2OS-LMNB1-TUBA1B-ACTB | 1.07 | 1.1 | 1.06 | 1.16 | 1.05 | 1.02 | 1.01
U2OS-mOrange2-Peroxisome | 0.839 | 0.806 | 0.749 | 0.771 | 0.895 | 0.952 | 1.27

O=NN(CCCl)C(=O)NC1CCCCC1 [lomustine]
cell count
Conditions | 0.3125 µM | 0.625 µM | 1.25 µM | 2.5 µM | 5 µM | 10 µM | 20 µM
U2OS | 0.856 | 0.819 | 0.952 | 0.895 | 1.02 | 0.818 | 0.7
U2OS-LMNB1-TUBA1B-ACTB | 0.906 | 0.972 | 0.927 | 0.932 | 1.02 | 0.856 | 0.73
U2OS-mOrange2-Peroxisome | 0.854 | 1.08 | 0.93 | 0.952 | 1.22 | 1.12 | 0.879

COc1cc(-n2c(=S)[nH]c3ccccc3c2=O)c(Cl)cc1Cl [mdivi-1]
cell count
Conditions | 0.3125 µM | 0.625 µM | 1.25 µM | 2.5 µM | 5 µM | 10 µM | 20 µM
U2OS | 1.02 | 0.927 | 1.04 | 1.01 | 1 | 0.643 | 1.04
U2OS-LMNB1-TUBA1B-ACTB | 1.02 | 1.01 | 1.08 | 1.03 | 1.02 | 0.74 | 1.09
U2OS-mOrange2-Peroxisome | 0.787 | 0.837 | 0.803 | 1.03 | 1.03 | 0.618 | 0.921
